Measurements as given in patent US9272927B2, “Method for preventing growth of microorganisms, and a combination for the prevention of microbial growth” (KEMIRA, OYJ, priority 2006, dated 2016).

Tests used:
Assay type in all cases: cell-based
[1] = test system: aerobic bacteria present in broke; assay: Bactericidal test on dilute broke of a board machine (Example 1); conditions: BCDMH 30 ppm alone; contact time 24 hours
Experimental: Dilute broke of a board machine (pH 7.8, oxidation reduction potential (ORP) 40 mV) was divided into 10 separate jars, and biocides to be tested were dosed. Concentrations are expressed in ppm (mg/l) of the commercially available product. In tests where two different agents were dosed into a single jar, the jar was closed after the first pipetting, the broke sample was vigorously agitated, followed by the addition of the second agent during 5 to 10 minutes. Jars were incubated under conditions corresponding to those in the broke system (45° C., mixing), and thereafter, viable aerobic bacterial counts were determined by cultivation after exposure periods of 4 and 24 hours.
In this bactericidal test on broke, killing efficacy of BCDMH and ePAA used alone and in combinations were compared, two thirds of BCDMH being replaced in the combinations with peracetic acid used in threefold amounts. For instance BCDMH 10 ppm versus ePAA 30 ppm versus BCDMH 3.3 ppm+ePAA 20 ppm.
The combination “BCDMH 3.3 ppm+ePAA 20 ppm” means that BCDMH was added prior to ePAA.

[2] = test system: biofilm of a mixture of adherent bacteria (Deinococcus geothermalis, Pseudoxanthomonas taiwanensis and Meiothermus silvanus); assay: Test for destructing a biofilm on stainless steel pegs, regrowth of new biofilm stained with safranin (Example 5); parameters: key: ++++: great amounts of biofilm were formed; ++: clearly reduced formation of the new biofilm, but not the complete inhibition thereof; −: completely inhibiting the new biofilm; conditions: total contact time 3 hours
Experimental: A test for destructing a biofilm was performed as described in the document FI 117056 B (Kemira Oyj). A biofilm was pregrown on lidplates having stainless steel pegs (3 d, 45° C., agitation at 150 rpm.). Clear filtrate of a fine paper machine served as the water (pH 7.6, ORP 71 mV), while a mixture of adherent bacteria (Deinococcus geothermalis, Pseudoxanthomonas taiwanensis and Meiothermus silvanus) grown in the laboratory was used for inoculation. After identical biofilms were grown on all the pegs of the lids, the lids were removed from the clear filtrate used for cultivation, washed with tap water and placed on plastic plates with 12 wells, one peg per well. 3.5 ml of the clear filtrate from the same paper machine, and the biocides to be tested were added in advance to each well. The pegs with biofilms were first immersed into the wells for 15 minutes, followed by removal of the plates for a moment for the addition of the other components of the biocidal combinations to the wells. Exposure to biocides was continued to attain a total contact time of 3 hours. Then, viability of the biofilms was determined by transferring the peglids to fresh 12-well plates where each well contained 2 ml of sterile cultivation broth, followed by cultivating the plates for 19 hours at 45° C. while mixing at 150 rpm. […]

[3] = test system: aerobic bacteria present in circulation water; assay: Bactericidal test on circulation water from an alkaline fine paper machine, agar plate count (Example 6); conditions: for killing of bacteria: 3 hours; for re-growth of bacteria: single biocide only, dosages that had yielded an efficient kill, within 1 day
Experimental: Circulation water (pH 8.2, ORP+169 mV) was collected from an alkaline fine paper machine (producing uncoated copy paper) and divided in 11 plastic containers. When two different biocides were dosed in to same container, the peracid was dosed first, the sample mixed thoroughly, and the second biocide was added within 5 to 10 minutes. All biocide dosages are reported as ppm (mg/l) of the commercial product, for example 20 ppm of performic acid (PFA) equilibrium product equals about 2 ppm as performic acid active substance, 12 ppm of BCDMH product equals about 4 ppm as active chlorine and 30 ppm of MCDMH product equals about 3 ppm as active chlorine. After biocide dosing the containers were capped and incubated at paper machine temperature (45° C.) with continuous agitation. The killing efficacy of different biocide dosages was measured 3 hours and 1 day after the biocide dosing using agar plate count method (PCA agar, 45° C., and 2 days).

SMILES | inhibition of regrowth [1] | formation of new biofilm ([2]; 16 ppm of BCDMH alone) | killing of bacteria ([3]; 12 ppm of BCDMH alone) | re-growth of bacteria [3] | formation of new biofilm ([2]; 60 ppm of MCDMH alone) | killing of bacteria ([3]; 45 ppm of MCDMH alone)
CC1(C)C(=O)N(Cl)C(=O)N1Br [BCDMH, bromochlorodimethyl hydantoin] | inhibited more effectively by BCDMH 30 ppm than PAA alone | ++ | most efficient | active re-growth of bacteria had occurred |  | 
CC1(C)C(=O)NC(=O)N1Cl [MCDMH, monochlorodimethyl hydantoin] |  |  |  | active re-growth of bacteria had occurred | ++++ | most efficient
